The values that follow come from patent US20110028405A1, “SULFAMIDES AS ZAP-70 INHIBITORS” (priority 2007, published 2011).

Bounds are passed on as bounds.

One assay deals with T1, ZAP-70 (Homo sapiens, UniProt P43403).
T1 construct: endogenous in cells; host or cells: cell lysate
T1 sequence (P43403 1-619): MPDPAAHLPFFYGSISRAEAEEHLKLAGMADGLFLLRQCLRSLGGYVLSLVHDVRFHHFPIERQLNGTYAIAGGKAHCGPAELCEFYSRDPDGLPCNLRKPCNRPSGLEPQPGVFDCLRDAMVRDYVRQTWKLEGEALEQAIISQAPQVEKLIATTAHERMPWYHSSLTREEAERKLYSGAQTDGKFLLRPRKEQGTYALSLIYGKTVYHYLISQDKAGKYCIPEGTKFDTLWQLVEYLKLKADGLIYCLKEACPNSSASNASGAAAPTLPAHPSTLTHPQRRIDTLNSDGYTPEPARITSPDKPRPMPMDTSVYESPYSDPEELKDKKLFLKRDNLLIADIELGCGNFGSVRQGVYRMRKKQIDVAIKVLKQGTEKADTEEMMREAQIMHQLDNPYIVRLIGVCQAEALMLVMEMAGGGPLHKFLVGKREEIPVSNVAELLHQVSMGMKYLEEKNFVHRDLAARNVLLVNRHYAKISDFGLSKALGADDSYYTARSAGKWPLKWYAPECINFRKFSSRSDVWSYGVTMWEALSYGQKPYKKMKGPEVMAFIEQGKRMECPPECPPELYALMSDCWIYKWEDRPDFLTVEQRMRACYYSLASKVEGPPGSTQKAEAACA
The experiment in a line: ZAP-70 kinobeads assay. It counts as binding. The conditions noted are these: cell lysate, dot blot detection. The protocol:
The compounds of the present invention as described in the previous examples can be tested in the ZAP-70 kinobeads assay as described (EP-A 1862802 and WO-A 2007/137867). Briefly, test compounds (at various concentrations) and the affinity matrix with the immobilized aminopyrido-pyrimidine ligand 24 are added to cell lysate aliquots and allowed to bind to the proteins in the lysate sample. After the incubation time the beads with captured proteins are separated from the lysate. Bound proteins are then eluted and the presence ZAP-70 is detected and quantified using a specific antibody in a dot blot procedure and the Odyssey infrared detection system.

The test system of the next assay is Jurkat cells. The experiment in a line: Calcium release assay (Fluo-4, flow cytometry, anti-CD3 stimulation). Particulars: Homo sapiens; intracellular Ca2+ release in Jurkat cells after anti-CD3 activation. It counts as cell-based. On the procedure: Compounds of the present invention were tested in a Calcium release assay as described below.
The development of fluorescent probes makes it possible to measure the concentration of intracellular free Calcium ions in single living cells. Cells are first loaded with a cell-permeable Ca^2+-sensitive dye, then the test compound is added. Finally, cells are activated through the T cell receptor with an anti-CD3 antibody shortly before data acquisition on the flow cytometer. The release of Ca^2+ is measured as a function of time after cell stimulation. This protocol describes the flow cytometry method using the Fluo-3 and Fluo-4 dyes (Minta et al., 1989, J. Biol. Chem. 264(14):8171-8178) to measure the intracellular Ca^2+ concentration in Jurkat cells (see also June et al., 1997, Measurement of intracellular calcium ions by flow cytometry. In: Current Protocols in Cytometry (1997) Unit 9.8.1-9.8.19, John Wiley & Sons, Inc.).
1) Prepare a work plan indicating the number of samples to be analyzed including controls. 2) Cell harvest: Centrifuge 50 to 100 ml of a Jurkat cell culture for 5 minutes at 1100 rpm. Discard the supernatant, pool the resuspended cell pellets in a single 50 ml Falcon tube, and fill up to 50 ml with PBS-CaCl2 (without FCS). Centrifuge again sample again. 3) Resuspend cell pellet with PBS-CaCl2 (without FCS) to achieve a concentration not lower than 10×10^6 cells/ml. Prepare an adequate dilution to evaluate the cell concentration and count the cells. 4) Separate the volume of cells needed to be loaded (for example […] for 20 samples) in a 50 ml Falcon tube. Fill up with PBS-CaCl2 to 900 μl for 107 cells. 5) Prepare in the dark a 1:1 mix of FLUO-4 (1 mM)+Pluronic F-127 (20%). 5 μl of Fluo-4 are needed per 107 cells. 6) Prepare a 1/10 dilution of this mix with PBS-CaCl2 (in the dark; for example 5 μl Fluo-4+5 μl F-127 completed to 100 μl). 7) Add the dye solution to the cells. […] 8) Incubate the sample for 30 minutes in a cell incubator (37° C., 5% CO2). Mix from time to time. 9) During this time prepare the adequate test compound dilution in PBS-CaCl2 (with 10% FCS). The solution should be 10 times more concentrated than the desired final concentration. Vortex each dilution. Prepare also the antibody dilutions: anti-CD3 (1/200) and GAM (1/25). 10) Label FACS tubes and distribute in the corresponding tube 30 μl of the compound dilution or only buffer for the control tubes. 11) After 30 minutes of incubation wash the cells twice in PBS-CaCl2 (with 10% FCS). During the washing steps make sure that the flow cytometer is already “ON” in order to warm the laser. 12) Resuspend the cell pellet in PBS-CaCl2 (with 10% FCS) at a concentration of 1.5×10^6 cells/ml. 13) Distribute 300 μl of cell suspension into the FACS tubes and mix gently. The compound incubation is starting. Keep samples at room temperature in the dark. 14) Open the settings of the cytometer. It is advised to have a template ready which is used for all measurements. Settings of the machine should also be the same from one experiment to the other which permits to evaluate the reproducibility of the cell preparation. 15) In Setup modus control your cell preparation on the cytometer. Cells should fit in the pre-defined gates. 16) During the compound incubation time, check also that cells are responding to the anti-CD3 activation as expected. Set a timer at 8 sec. Add 6 μl of anti-CD3 dilution (0.2 μg/ml final) and mix gently. Add 1 μl of GAM dilution (0.75 μg/ml final) and mix gently. Incubate the samples in water bath at 37° C. while starting timer. After 8 seconds of incubation, acquire data at medium speed for 200 seconds. A clear increase of fluorescence should appear after 1 minute. 17) Make sure that the cells rest and equilibrate at room temperature 15 minutes before FACS data acquisition 18) Data acquisition: Samples to be compared should be measured consecutively. 19) For a better reproducibility, make sure that data for the loaded cells are acquired within 2 hours. […]
(In general: In flow cytometry, cells or beads pass a laser one at a time.)

Regarding `COc1cc(Nc2ncc(F)c(Nc3cccc(NS(N)(=O)=O)c3)n2)cc(OC)c1OC` [Example 1, N-(3-(5-fluoro-2-(3,4,5-trimethoxyphenylamino)pyrimidin-4-ylamino)phenyl)sulfamide], the IC50 (as a rule, the concentration that inhibits the measured activity by half) was less than 50000 nM on ZAP-70 and less than 1000 nM in the assay on Jurkat cells.
`COc1cc(Nc2ncc(F)c(Nc3cccc(NS(=O)(=O)N(C)C)c3)n2)cc(OC)c1OC` [Example 2, N-(3-(5-fluoro-2-(3,4,5-trimethoxyphenylamino)pyrimidin-4-ylamino)phenyl)-N′,N′-dimethylsulfamide] yielded an IC50 on ZAP-70 of less than 50000 nM.
On the same count and under the same terms, with `COc1cc(Nc2ncc(F)c(Nc3cccc(NS(=O)(=O)NCC4CC4)c3)n2)cc(OC)c1OC` [Example 3, N-(3-(5-fluoro-2-(3,4,5-trimethoxyphenylamino)pyrimidin-4-ylamino)phenyl)-N′-cyclopropylmethylsulfamide] the figure was less than 50000 nM.
On to `COc1cc(Nc2ncc(F)c(Nc3cccc(NS(=O)(=O)NC(C)C)c3)n2)cc(OC)c1OC` [Example 6, N-(3-(5-fluoro-2-(3,4,5-trimethoxyphenylamino)pyrimidin-4-ylamino)phenyl)-N′-isopropylsulfamide], for which, on ZAP-70, the IC50 was less than 50000 nM.
On to `CCNS(=O)(=O)Nc1cccc(Nc2nc(Nc3cc(OC)c(OC)c(OC)c3)ncc2F)c1` [Example 7, N-(3-(5-fluoro-2-(3,4,5-trimethoxyphenylamino)pyrimidin-4-ylamino)phenyl)-N′-ethylsulfamide], for which the 50% inhibitory concentration (IC50) against ZAP-70 is less than 50000 nM; in the assay with Jurkat cells, less than 1000 nM.
With `COCCNS(=O)(=O)Nc1cccc(Nc2nc(Nc3cc(OC)c(OC)c(OC)c3)ncc2F)c1` [Example 8, N-(3-(5-fluoro-2-(3,4,5-trimethoxyphenylamino)pyrimidin-4-ylamino)phenyl)-N′-(2-methoxyethyl)sulfamide], the IC50 against ZAP-70 is less than 50000 nM.
Same read-out and setting: with `CNS(=O)(=O)Nc1cccc(Nc2nc(Nc3cc(OC)c(OC)c(OC)c3)ncc2F)c1` [Example 9, N-(3-(5-fluoro-2-(3,4,5-trimethoxyphenylamino)pyrimidin-4-ylamino)phenyl)-N′-methylsulfamide] the figure was less than 50000 nM.
Take `COc1cc(Nc2ncc(F)c(Nc3ccccc3NS(N)(=O)=O)n2)cc(OC)c1OC` [Example 10, N-(2-(5-fluoro-2-(3,4,5-trimethoxyphenylamino)pyrimidin-4-ylamino)phenyl)sulfamide]: the IC50 on ZAP-70 and in the assay on Jurkat cells was less than 100 nM each time.
Consider `COc1cc(Nc2ncc(F)c(Nc3ccccc3NS(=O)(=O)N(C)C)n2)cc(OC)c1OC` [Example 11, N-(2-(5-fluoro-2-(3,4,5-trimethoxyphenylamino)pyrimidin-4-ylamino)phenyl)-N′,N′-dimethylsulfamide], for which the IC50 against ZAP-70 and in the assay with Jurkat cells was less than 1000 nM each time.
On to `COc1cc(Nc2ncc(F)c(Nc3ccccc3NS(=O)(=O)NCC3CC3)n2)cc(OC)c1OC` [Example 12, N-(2-(5-fluoro-2-(3,4,5-trimethoxyphenylamino)pyrimidin-4-ylamino)phenyl)-N′-cyclopropylmethylsulfamide], for which the values for the IC50 on ZAP-70 and in the assay on Jurkat cells were less than 50000 nM and less than 1000 nM, respectively.
Turning to `COc1cc(Nc2ncc(F)c(Nc3ccccc3NS(=O)(=O)NC(C)C)n2)cc(OC)c1OC` [Example 13, N-(2-(5-fluoro-2-(3,4,5-trimethoxyphenylamino)pyrimidin-4-ylamino)phenyl)-N′-isopropylsulfamide], the IC50 at ZAP-70 was less than 50000 nM.
Turning to `COc1cc(Nc2ncc(F)c(Nc3ccccc3NS(=O)(=O)NCc3ccccc3)n2)cc(OC)c1OC` [Example 14, N-(2-(5-fluoro-2-(3,4,5-trimethoxyphenylamino)pyrimidin-4-ylamino)phenyl)-N′-benzylsulfamide], the concentration for half-maximal inhibition (IC50) at ZAP-70 is less than 50000 nM.
As to `COCCNS(=O)(=O)Nc1ccccc1Nc1nc(Nc2cc(OC)c(OC)c(OC)c2)ncc1F` [Example 15, N-(2-(5-fluoro-2-(3,4,5-trimethoxyphenylamino)pyrimidin-4-ylamino)phenyl)-N′-(2-methoxyethyl)sulfamide], the IC50 against ZAP-70 is less than 50000 nM; with Jurkat cells, less than 1000 nM.
As to `COc1cc(Nc2ncc(F)c(Nc3ccc(NS(=O)(=O)N(C)C)cc3)n2)cc(OC)c1OC` [Example 16, N-(4-(5-fluoro-2-(3,4,5-trimethoxyphenylamino)pyrimidin-4-ylamino)phenyl)N′,N′-dimethylsulfamide], the IC50 in the assay on Jurkat cells is less than 1000 nM.
As to `COc1cc(Nc2nccc(Nc3ccccc3NS(N)(=O)=O)n2)cc(OC)c1OC` [Example 23, N-(2-(2-(3,4,5-trimethoxyphenylamino)pyrimidin-4-ylamino)phenyl)sulfamide], the IC50 against ZAP-70 and in the assay on Jurkat cells was less than 1000 nM throughout.
On to `COc1cc(Nc2ncc(C)c(Nc3ccccc3NS(N)(=O)=O)n2)cc(OC)c1OC` [Example 24, N-(2-(5-methyl-2-(3,4,5-trimethoxyphenylamino)pyrimidin-4-ylamino)phenyl)sulfamide], for which the IC50 is less than 1000 nM against ZAP-70 and less than 100 nM with Jurkat cells.
In the same order, the values of `CN(C)c1ccc(Nc2ncc(Br)c(Nc3ccccc3NS(N)(=O)=O)n2)cc1` [Example 25] are less than 1000 nM and less than 100 nM.
For `COc1ccc(Nc2ncc(Br)c(Nc3ccccc3NS(N)(=O)=O)n2)cc1` [Example 26, N-(2-(5-bromo-2-(4-methoxyamino)pyrimidin-4-ylamino)phenyl)sulfamide], in that order: less than 1000 nM and less than 100 nM.
For `NS(=O)(=O)Nc1ccccc1Nc1nc(Nc2ccc3[nH]nnc3c2)ncc1Br` [Example 27, N-(2-(2 (1H-benzo[d][1,2,3]triazol-5-ylamino)-5-bromopyrimidin-4-ylamino)phenyl)sulfamide], in that order: less than 1000 nM and less than 1000 nM.
With `COc1ccc(Nc2ncc(F)c(Nc3ccccc3NS(N)(=O)=O)n2)cc1` [Example 28, N-(2-(5-fluoro-2-(4-methoxyphenylamino)pyrimidin-4-ylamino)phenyl)sulfamide], the concentration for half-maximal inhibition (IC50) on ZAP-70 was less than 50000 nM; with Jurkat cells, less than 1000 nM.
In turn, `CN(C)c1ccc(Nc2ncc(F)c(Nc3ccccc3NS(N)(=O)=O)n2)cc1` [Example 29, N-(2-(5-fluoro-2-(4-(dimethylamino)phenylamino)pyrimidin-4-ylamino)phenyl)sulfamide] had an IC50 against ZAP-70 of less than 1000 nM.
